The nature of assay [1]: Inhibition of Escherichia coli GlnRS.
Assay [2] can be described thus: Inhibition of Escherichia coli GluRS.
Assay [3] in a line: Inhibition of cytoplasmic calf liver GluRS. The arrangement: species or system Bos taurus.
Assay [4] is described as follows: Ratio of Ki for calf liver GluRS to Ki for Escherichia coli GluRS.

Consider `Nc1ncnc2c1ncn2[C@@H]1O[C@H](COP(=O)(O)CC(=O)[C@@H](N)CCC(=O)O)[C@@H](O)[C@H]1O`, for which the Ki (usually a measure of affinity in units of concentration, obtained from inhibition or displacement) is 2800 µM in assay [1], 18 µM in assay [2] and 2600 µM in assay [3]. For the same molecule, in assay [4], the Ratio Ki amounted to 145.

For `Nc1ncnc2c1ncn2[C@@H]1OC(COS(=O)(=O)NC(=O)[C@@H](N)CCC(=O)O)[C@@H](O)[C@H]1O` (some centres undefined), the Ki amounted to 0.0028 µM in assay [2] and 0.07 µM in assay [3]. For the same molecule, in assay [4], the Ratio Ki is 25.

For `NC(=O)CC[C@H](N)C(=O)CP(=O)(O)OC[C@H]1O[C@@H](n2cnc3c(N)ncnc32)[C@H](O)[C@@H]1O`, the Ki turned out to be 650 µM in assay [1] and 2900 µM in assay [2].

The values are drawn from ChEMBL document CHEMBL1144510, “Synthesis of beta-ketophosphonate analogs of glutamyl and glutaminyl adenylate, and selective inhibition of the corresponding bacterial aminoacyl-tRNA synthetases” (Bioorg Med Chem, 2007).
